Experimental data taken from patent US10161931B2, “Methods for determining susceptibility to coreceptor inhibitors” (Monogram Biosciences, Inc., priority 2006, dated 2018).

Columns and labels:
[1] = test system: X4-tropic clone 42x; assay: Entry inhibitor susceptibility, pseudotyped HIV-1 entry (luciferase) assay, env clone 42x (c42); type: cell-based
Description: (§1) Susceptibility assays for HIV-1 entry inhibitors were performed using packaging host cells consisting of the human embryonic kidney cell line 293 (Cell Culture Facility, UC San Francisco, SF, Calif.) and target host cells consisting of a human osteosarcoma (HOS) cell line expressing CD4 (HT4) plus CCR5, and CXCR4, astrocytoma (U-87) cell lines expressing either CD4 and CCR5 or CD4 and CXCR4, or glioma (NP2) cell lines expressing CD4 and either CCR5 or CXCR4.
(§2) Drug susceptibility and tropism testing was performed using pHIVenv and pHIVluc or pHIVlucΔU3. […] After infection ([…]) the target cells were lysed and luciferase activity was measured. […] The amount of luciferase activity detected in the infected cells was used as a direct measure of “infectivity” (FIGS. 1 and 2). […] Drug susceptibility was assessed by comparing the infectivity in the absence of drug to infectivity in the presence of drug. Relative drug susceptibility can be quantified by comparing the susceptibility of the “test” virus to the susceptibility of a well-characterized reference virus (wild type) derived from a molecular clone of HIV-1, for example NL4-3 or PIXB2.
(§3) The ability of a virus to enter a cell was assessed by comparing the amount of luciferase activity produced in each cell type, e.g., cells expressing CD4 and either CCR5 or CXCR4, both in the presence and absence of drug. […]

[2] = test system: dual-X clone 88D; assay: Entry inhibitor susceptibility, pseudotyped HIV-1 entry (luciferase) assay, env clone 88D (c88); type: cell-based; details: Human immunodeficiency virus 1; clone c88, tropism dual; read-out: Sensitivity of Entry Inhibitors
Description: as §1, §2, §3

[3] = test system: dual-R clone 86d; assay: Entry inhibitor susceptibility, pseudotyped HIV-1 entry (luciferase) assay, env clone 86d (c86); type: cell-based
Description: as §1, §2, §3

[4] = test system: dual-X clone 11D; assay: Entry inhibitor susceptibility, pseudotyped HIV-1 entry (luciferase) assay, env clone 11D (c11); type: cell-based; details: Human immunodeficiency virus 1; clone c11, tropism dual; read-out: Sensitivity of Entry Inhibitors
Description: as §1, §2, §3

[5] = test system: Isogenic viruses containing one or two specific mutations in the gp41 transmembrane envelope protein; assay: T-20 susceptibility of isogenic viruses with gp41 mutations (FIG. 4B); type: cell-based, HIV; details: cells expressing CD4, CCR5 and CXCR4, gp41 mutants vs wild type
Description: Cells expressing CD4, CCR5 and CXCR4 were infected in the absence of T-20 and over a wide range of T-20 concentrations (x-axis log 10 scale). The percent inhibition of viral replication (y-axis) was determined by comparing the amount of luciferase produced in infected cells in the presence of T-20 to the amount of luciferase produced in the absence of T-20. Isogenic viruses containing one or two specific mutations in the gp41 transmembrane envelope protein were tested (highlighted in red in the figure legend). Drug susceptibility is quantified by determining the concentration of T-20 required to inhibit 50% of viral replication (IC50, shown as vertical dashed lines). […]
as §2

[6] = test system: dual-R clone 21d; assay: Entry inhibitor susceptibility, pseudotyped HIV-1 entry (luciferase) assay, env clone 21d (c21); type: cell-based; details: dual-R clone 21d compared to R5-, X4- and dual-X tropic clones
Description: as §1, §2, §3

c1cc(CN2CCCNCCNCCCNCC2)ccc1CN1CCCNCCNCCCNCC1 [AMD]
IC50 ([1]; Human immunodeficiency virus 1, clone c42, tropism X4, read-out: Sensitivity of Entry Inhibitors): 45.8 nM
sensitivity compared to other clones (in words) ([1]; X4 clone 42d (so in the source)): subtle reduction in sensitivity
IC50 [2]: 8.7 nM
IC50 ([3]; Human immunodeficiency virus 1, clone c86, tropism dual-R, read-out: Sensitivity of Entry Inhibitors): 5.6 nM
IC50 [4]: 3.4 nM

enfuvirtide
susceptibility to fusion inhibitor (in words) [5]: reduced susceptibility
fold-reduced susceptibility [6]: 4-5 fold
fold-reduced susceptibility ([3]; dual-R clone 86d compared to R5-, X4- and dual-X tropic clones): 4-5 fold
